Experiment [1] concerns the target T1, ADP-sugar pyrophosphatase (Homo sapiens, UniProt Q9UKK9). The note with it: filed as antagonist.
Experiment [2] concerns the target T1, ADP-sugar pyrophosphatase. Further details: species or system HEK293.

Active and inactive are the calls of the source. No cut-off for these calls is given here. Bounds are passed on as bounds.

The results in this text go back to ChEMBL document CHEMBL5506016 (J Med Chem, 2024).

As to `Cn1c(=O)c2c(nc(N3CCN(CCCCN)CC3)n2Cc2nnc(-c3ccc(Cl)c(Cl)c3)o2)n(C)c1=O`, in experiment [1], the outcome was Active.

The EC50 is the midpoint of the concentration-response curve. Turning to `CC#CC(=O)N1CCC[C@H]1c1nc(-c2ccc(C(=O)Nc3ccccn3)cc2)c2c(N)nccn12` [ACALABRUTINIB], in experiment [2], the 50% effective concentration (EC50) is above 10 µM.

Take `CC#CC(=O)N[C@H]1CCCN(c2c(F)cc(C(N)=O)c3[nH]c(C)c(C)c23)C1` [BRANEBRUTINIB]: the EC50 in experiment [2] was above 10 µM.

For the molecule `C=CC(=O)N1CCC[C@@H](n2nc(-c3ccc(Oc4ccccc4)cc3)c3c(N)ncnc32)C1` [IBRUTINIB], the half-maximal effective concentration (EC50) in experiment [2] was determined as 1.23 µM.
